The target of experiment [1] is p38a activated, mitogen-activated protein kinase-activated protein kinase 2 (MAPKAP-K2 or MK-2) enzyme (Homo sapiens (Human), UniProt P49137). In words: MK2 Omnia continuous-read kinase assay for compound potency. In kind it is biochemical. The settings on record: [MK-2]=0.4 nM, [ATP]=1.0 mM, [ST3-Sox]=10 μM. The source says:
The protocol below describes a continuous-read kinase assay optimized to measure potency of compounds against p38a activated, mitogen-activated protein kinase-activated protein kinase 2 (MAPKAP-K2 or MK-2) enzyme. The mechanics of the assay platform are best described by the vendor (Invitrogen, Carlsbad, Calif.) on their website at the following URL: invitrogen.com/search/global/searchAction. action?resultPage=1 &resultsPerPage=15 &query=om nia&personaFilterTerm=Support+%26+Troubleshoot
Kinase reactions were started with the addition of 40 μL of MK-2 enzyme and monitored every 71 seconds for 30-240 minutes at λex360/λem485 in a Synergy^2, Synergy^4 or Synergy H^4 plate reader from BioTek (Winooski, Vt.). […] Initial velocity (0 minutes to +30 minutes) from each reaction was estimated from the slope of a plot of relative fluorescence units vs time (minutes) and normalized to the no enzyme and no inhibitor control groups for % Inhibition. The resulting % Inhibition values were then plotted against inhibitor concentration to estimate IC50 from log[Inhibitor] vs Response, Variable Slope model in GraphPad Prism from GraphPad Software (San Diego, Calif.).
[MK-2]=0.4 nM, [ATP]=1.0 mM and [ST3-Sox]=10 μM (ATP ^appKM=8-10 μM)

The next experiment has as its target MK2 (Homo sapiens (Human), UniProt P49137). In words: MK2 modification assessment by whole protein mass spectrometry. It is filed as binding. The settings on record: intact MK2, 60 min, 10-fold excess of compound to protein. The method, then:
Modification of MK2 is measured by whole protein MS analysis. […] 5 μL aliquots of the samples were diluted with 15 μL of 0.2% TFA prior to micro C4 ZipTipping directly onto the MALDI target using sinapinic acid as the desorption matrix (10 mg/ml in 0.1% TFA:Acetonitrile 50:50). Analysis was performed on a AB Sciex 4800 MALDI TOF/TOF retro fitted with an HM2 detector (CovalX). Percent modification of target MK2 (i.e., the percent of total MK2 modified by the test compound) for each compound was calculated by subtracting the centroid mass of the compound treated MK2 from the centroid mass of the control MK2 and dividing that value with the mass of the compound.

By IC50 is commonly meant the concentration that gives 50% inhibition.

Chain of p38a activated, mitogen-activated protein kinase-activated protein kinase 2 (MAPKAP-K2 or MK-2) enzyme (P49137 whole entry): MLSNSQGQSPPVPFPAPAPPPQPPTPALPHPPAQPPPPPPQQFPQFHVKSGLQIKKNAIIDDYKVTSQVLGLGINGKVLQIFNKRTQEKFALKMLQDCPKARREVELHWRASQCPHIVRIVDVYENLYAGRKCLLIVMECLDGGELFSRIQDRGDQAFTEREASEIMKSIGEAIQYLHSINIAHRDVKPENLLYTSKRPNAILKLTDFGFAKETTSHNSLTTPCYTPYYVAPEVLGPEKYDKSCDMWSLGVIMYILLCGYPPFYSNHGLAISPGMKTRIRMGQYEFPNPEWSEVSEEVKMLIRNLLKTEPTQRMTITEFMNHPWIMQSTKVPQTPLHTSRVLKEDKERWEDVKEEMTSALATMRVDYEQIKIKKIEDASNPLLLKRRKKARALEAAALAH
Chain of MK2 (P49137 whole entry): as above

For `C=CC(=O)Nc1ccccc1Nc1nccc(-c2cc3c([nH]2)C2(CCCNC2)CNC3=O)n1` (racemic) [Compound I-5, N-(2-((4-(4′-oxo-1′,4′,5′,6′-tetrahydrospiro[piperidine-3,7′-pyrrolo[3,2-c]pyridin]-2′-yl)pyrimidin-2-yl)amino)phenyl)acrylamide], in experiment [1], the IC50 is above 1000 nM. Further, the “MK2 Mass Mod” value at MK2 was “F (mass modification of 31-69%)”.

As for `C=CC(=O)Nc1cc(-c2cc(-c3cc4c([nH]3)C3(CCCNC3)CNC4=O)ccn2)ccc1N1CCN(C)CC1` (racemic) [Compound I-10, N-(2-(4-methylpiperazin-1-yl)-5-(4-(4′-oxo-1′,4′,5′,6′-tetrahydrospiro[piperidine-3,7′-pyrrolo[3,2-c]pyridin]-2′-yl)pyridin-2-yl)phenyl)acrylamide], in experiment [1], the IC50 is below 100 nM. Besides, at MK2, the “MK2 Mass Mod” value is given as “E (mass modification of ≥70%)”.

With `C=CC(=O)Nc1cc(C(=O)Nc2cc(-c3cc4c([nH]3)C3(CCCNC3)CNC4=O)ccn2)ccc1F` (racemic) [Compound I-24, 3-acrylamido-4-fluoro-N-(4-(4′-oxo-1′,4′,5′,6′-tetrahydrospiro[piperidine-3,7′-pyrrolo[3,2-c]pyridin]-2′-yl)pyridin-2-yl)benzamide], in experiment [1], the IC50 was 101 to 500 nM. On MK2, the “MK2 Mass Mod” value is recorded as “F (mass modification of 31-69%)”.

As to `C=CC(=O)NC1CCCCC1NC(=O)c1ccc2cc3n(c2c1)CCNC3=O` (racemic) [Compound V-10, Racemic N-((1S,2R)-2-acrylamidocyclohexyl)-1-oxo-1,2,3,4-tetrahydropyrazino[1,2-a]indole-7-carboxamide], in experiment [1], the IC50 was above 1000 nM. Moreover, the “MK2 Mass Mod” value on MK2 is “G (mass modification ≤30%)”.

On to `C=CC(=O)N[C@H]1CCCC[C@H]1NC(=O)c1ccc2cc3n(c2c1)C1(CCC1)CNC3=O` (racemic) [Compound V-46, Cis-N-(2-acrylamidocyclohexyl)-1′-oxo-2′,3′-dihydro-1′H-spiro[cyclobutane-1,4′-pyrazino[1,2-a]indole]-7′-carboxamide (racemic)], for which, in experiment [1], the IC50 is above 1000 nM. Also, the “MK2 Mass Mod” value on MK2 was “G (mass modification ≤30%)”.

Consider `C=CC(=O)N[C@H]1COC[C@H]1NC(=O)c1ccc2cc3n(c2c1)C1(CCC1)CNC3=O` (racemic) [Compound V-49, Cis-N-(4-acrylamidotetrahydrofuran-3-yl)-1′-oxo-2′,3′-dihydro-1′H-spiro[cyclobutane-1,4′-pyrazino[1,2-a]indole]-7′-carboxamide (racemic)], for which the IC50 in experiment [1] is above 1000 nM. Moreover, the “MK2 Mass Mod” value at MK2 is listed as “G (mass modification ≤30%)”.

As for `C=CC(=O)NC1CCCC1NC(=O)c1ccc2cc3n(c2c1)C1(CCC1)CNC3=O` (racemic) [Compound V-55, N-cis-(2-acrylamidocyclopentyl)-1′-oxo-2′,3′-dihydro-1′H-spiro[cyclobutane-1,4′-pyrazino[1,2-a]indole]-7′-carboxamide (racemic)], the IC50 in experiment [1] was above 1000 nM. Also, the “MK2 Mass Mod” value at MK2 was “G (mass modification ≤30%)”.

Regarding `C=CC(=O)NC1CCCCC1NC(=O)c1ccc2cc3n(c2c1)C1(CCC1)CNC3=O` (racemic) [Compound V-64, trans-(2-acrylamidocyclohexyl)-1′-oxo-2′,3′-dihydro-1′H-spiro[cyclobutane-1,4′-pyrazino[1,2-a]indole]-7′-carboxamide (racemic)], the IC50 in experiment [1] was above 1000 nM.

Take `C=CC(=O)Nc1cc(NC(=O)c2ccc3cc4n(c3c2)CCNC4=O)ccc1N1CCN(CC)CC1` [Compound V-1, N-(3-acrylamido-4-(4-ethylpiperazin-1-yl)phenyl)-1-oxo-1,2,3,4-tetrahydropyrazino[1,2-a]indole-7-carboxamide]: in experiment [1], the IC50 was in the range of 501 to 999 nM. Moreover, the “MK2 Mass Mod” value on MK2 is reported as “E (mass modification of ≥70%)”.

For the molecule `C=CC(=O)N[C@H]1CN(C(=O)c2ccc3cc4n(c3c2)CCNC4=O)CC[C@H]1C` [Compound V-2, N-((3R,4R)-4-methyl-1-(1-oxo-1,2,3,4-tetrahydropyrazino[1,2-a]indole-7-carbonyl)piperidin-3-yl)acrylamide], in experiment [1], the IC50 was above 1000 nM. At MK2, the “MK2 Mass Mod” value is on record as “G (mass modification ≤30%)”.

Regarding `C=CC(=O)N1CCC[C@@H](NC(=O)c2ccc3cc4n(c3c2)CCNC4=O)C1` [Compound V-3, (R)—N-(1-acryloylpiperidin-3-yl)-1-oxo-1,2,3,4-tetrahydropyrazino[1,2-a]indole-7-carboxamide], in experiment [1], the IC50 is above 1000 nM. Also, the “MK2 Mass Mod” value on MK2 is reported as “G (mass modification ≤30%)”.

In the case of `CN(C)C/C=C/C(=O)N1CCOc2ccc(NC(=O)c3ccc4cc5n(c4c3)CCNC5=O)cc21` [Compound V-4, (E)-N-(4-(4-(dimethylamino)but-2-enoyl)-3,4-dihydro-2H-benzo[b][1,4]oxazin-6-yl)-1-oxo-1,2,3,4-tetrahydropyrazino[1,2-a]indole-7-carboxamide], the IC50 in experiment [1] was above 1000 nM. In addition, the “MK2 Mass Mod” value on MK2 was “G (mass modification ≤30%)”.

As to `CN(C)C/C=C/C(=O)Nc1ccccc1NC(=O)c1ccc2cc3n(c2c1)CCNC3=O` [Compound V-5, (E)-N-(2-(4-(dimethylamino)but-2-enamido)phenyl)-1-oxo-1,2,3,4-tetrahydropyrazino[1,2-a]indole-7-carboxamide], the IC50 in experiment [1] is above 1000 nM. For the same molecule, the “MK2 Mass Mod” value on MK2 is on record as “G (mass modification ≤30%)”.

As for `C=CC(=O)Nc1cccc(NC(=O)c2ccc3cc4n(c3c2)CCNC4=O)c1` [Compound V-7, N-(3-acrylamidophenyl)-1-oxo-1,2,3,4-tetrahydropyrazino[1,2-a]indole-7-carboxamide], the IC50 in experiment [1] is above 1000 nM. Also, the “MK2 Mass Mod” value on MK2 is “F (mass modification of 31-69%)”.

As for `C=CC(=O)Nc1ccccc1NC(=O)c1ccc2cc3n(c2c1)CCNC3=O` [Compound V-8, N-(2-acrylamidophenyl)-1-oxo-1,2,3,4-tetrahydropyrazino[1,2-a]indole-7-carboxamide], in experiment [1], the IC50 was above 1000 nM. Moreover, the “MK2 Mass Mod” value on MK2 is listed as “E (mass modification of ≥70%)”.

Turning to `C=CC(=O)N1CCc2ccc(NC(=O)c3ccc4cc5n(c4c3)CCNC5=O)cc21` [Compound V-9, N-(1-acryloylindolin-6-yl)-1-oxo-1,2,3,4-tetrahydropyrazino[1,2-a]indole-7-carboxamide], the IC50 in experiment [1] is 101 to 500 nM. For the same molecule, on MK2, the “MK2 Mass Mod” value is “E (mass modification of ≥70%)”.

`C=CC(=O)Nc1c(C)ccc2oc(-c3ccc4cc5n(c4c3)C3(CCC3)CNC5=O)nc12` [Compound V-12, N-(5-methyl-2-(1′-oxo-2′,3′-dihydro-1′H-spiro[cyclobutane-1,4′-pyrazino [1,2-a]indol]-7′-yl)benzo[d]oxazol-4-yl)acrylamide]: in experiment [1], the IC50 was above 1000 nM.

On to `C=CC(=O)Nc1ccccc1NC(=O)c1ccc2cc3n(c2c1)C1(CCC1)CNC3=O` [Compound V-14, N-(2-acrylamidophenyl)-1′-oxo-2′,3′-dihydro-1′H-spiro[cyclobutane-1,4′-pyrazino [1,2-a]indole]-7′-carboxamide], for which the half-inhibitory concentration (IC50) in experiment [1] was above 1000 nM. Moreover, on MK2, the “MK2 Mass Mod” value is given as “E (mass modification of ≥70%)”.

Turning to `C=CC(=O)Nc1cccc2oc(-c3ccc4cc5n(c4c3)CCNC5=O)nc12` [Compound V-31, N-(2-(1-oxo-1,2,3,4-tetrahydropyrazino[1,2-a]indol-7-yl)benzo[d]oxazol-4-yl)acrylamide], in experiment [1], the IC50 is 501 to 999 nM. Besides, the “MK2 Mass Mod” value at MK2 is recorded as “E (mass modification of ≥70%)”.

In the case of `C=CC(=O)Nc1c(C)c(NC2CCCNC2)nc2ccnn12` (stereo not shown) [IV-b-1, N-(6-methyl-5-(piperidin-3-ylamino)pyrazolo [1,5-a]pyrimidin-7-yl)acrylamide], the IC50 in experiment [1] lay within 101 to 500 nM.

Turning to `C=CC(=O)Nc1cc(-c2cc3c(cn2)CCc2c-3[nH]c3c2C(=O)NCC3)ccc1OCCCNC(=O)CCCC(=O)NCCCOCCOCCOCCCNC(=O)CCCC[C@H]1SC[C@H]2NC(=O)N[C@H]21` [Probe 1], in experiment [1], the IC50 is below 100 nM.

Consider `C=CC(=O)Nc1cc(-c2cc3c(cn2)CCc2c-3[nH]c3c2C(=O)NCC3)ccc1OCCCNC(=O)CCCC(=O)NCCCOCCOCCOCCCNC(=O)CCCC[C@H]1SC[C@H]2NC(=O)N[C@H]21` [Probe 2, N1-(3-(2-acrylamido-4-(7-oxo-6,7,8,9,10,11-hexahydro-5H-pyrido[3′,4′:4,5]pyrrolo[2,3-f]isoquinolin-2-yl)phenoxy)propyl)-N5-(15-oxo-19-((3aR,4R,6aS)-2-oxohexahydro-1H-thieno[3,4-d]imidazol-4-yl)-4,7,10-trioxa-14-azanonadecyl)glutaramide], for which the IC50 in experiment [1] is below 100 nM.

As to `C=CC(=O)Nc1cc(-c2cc(-c3cc4n(c3)CCNC4=O)ccn2)ccc1OC` [V-c-1, N-(2-methoxy-5-(4-(1-oxo-1,2,3,4-tetrahydropyrrolo[1,2-a]pyrazin-7-yl)pyridin-2-yl)phenyl)acrylamide], the “MK2 Mass Mod” value on MK2 is given as “F (mass modification of 31-69%)”.
